Experimental data reported in PMC3914206.

Tests used:
Type in all cases: binding
panel of 442 kinases [1] = target: T1, panel of 442 kinases (Homo sapiens, UniProt Q00537); settings: Compound Concentration 10 µM
T1 construct: purchased KINOMEscan
Description: (§1) We assessed the selectivity of members of this scaffold using the KINOMEscan methodology across a near comprehensive panel of 442 kinases [[18,27]].

panel of 442 kinases [2] = target: T2, panel of 442 kinases (Homo sapiens, UniProt P80192); settings: Compound Concentration 10 µM
T2 construct: purchased KINOMEscan
Description: as §1

panel of 442 kinases [3] = target: T3, panel of 442 kinases (Homo sapiens, UniProt Q06418); settings: kinase TYRO3; compound concentration 10 µM
T3 construct: purchased KINOMEscan
T3 sequence (Q06418 41-890): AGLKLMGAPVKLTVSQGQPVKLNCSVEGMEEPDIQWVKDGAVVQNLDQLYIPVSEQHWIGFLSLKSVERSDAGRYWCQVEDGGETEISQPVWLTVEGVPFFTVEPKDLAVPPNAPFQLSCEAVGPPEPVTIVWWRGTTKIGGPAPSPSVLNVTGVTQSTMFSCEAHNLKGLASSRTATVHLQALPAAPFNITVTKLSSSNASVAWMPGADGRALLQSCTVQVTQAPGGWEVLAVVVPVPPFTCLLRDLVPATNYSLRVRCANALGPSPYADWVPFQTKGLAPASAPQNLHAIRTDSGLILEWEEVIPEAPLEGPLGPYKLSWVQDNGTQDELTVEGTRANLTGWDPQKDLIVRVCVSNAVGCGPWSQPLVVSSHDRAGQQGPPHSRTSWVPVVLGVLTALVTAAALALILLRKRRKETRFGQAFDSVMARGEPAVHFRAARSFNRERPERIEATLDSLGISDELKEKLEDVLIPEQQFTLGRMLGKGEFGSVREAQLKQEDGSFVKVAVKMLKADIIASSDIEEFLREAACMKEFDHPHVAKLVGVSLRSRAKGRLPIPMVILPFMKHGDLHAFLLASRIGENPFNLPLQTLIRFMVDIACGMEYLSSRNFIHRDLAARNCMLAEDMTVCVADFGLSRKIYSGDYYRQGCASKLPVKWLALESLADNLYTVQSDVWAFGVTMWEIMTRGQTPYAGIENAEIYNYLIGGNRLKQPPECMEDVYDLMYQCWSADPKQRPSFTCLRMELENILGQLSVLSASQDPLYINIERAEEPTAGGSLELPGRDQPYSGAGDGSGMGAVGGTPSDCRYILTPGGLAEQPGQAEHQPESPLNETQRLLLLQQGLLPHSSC
Description: as §1

T2 sequence (P80192 whole entry): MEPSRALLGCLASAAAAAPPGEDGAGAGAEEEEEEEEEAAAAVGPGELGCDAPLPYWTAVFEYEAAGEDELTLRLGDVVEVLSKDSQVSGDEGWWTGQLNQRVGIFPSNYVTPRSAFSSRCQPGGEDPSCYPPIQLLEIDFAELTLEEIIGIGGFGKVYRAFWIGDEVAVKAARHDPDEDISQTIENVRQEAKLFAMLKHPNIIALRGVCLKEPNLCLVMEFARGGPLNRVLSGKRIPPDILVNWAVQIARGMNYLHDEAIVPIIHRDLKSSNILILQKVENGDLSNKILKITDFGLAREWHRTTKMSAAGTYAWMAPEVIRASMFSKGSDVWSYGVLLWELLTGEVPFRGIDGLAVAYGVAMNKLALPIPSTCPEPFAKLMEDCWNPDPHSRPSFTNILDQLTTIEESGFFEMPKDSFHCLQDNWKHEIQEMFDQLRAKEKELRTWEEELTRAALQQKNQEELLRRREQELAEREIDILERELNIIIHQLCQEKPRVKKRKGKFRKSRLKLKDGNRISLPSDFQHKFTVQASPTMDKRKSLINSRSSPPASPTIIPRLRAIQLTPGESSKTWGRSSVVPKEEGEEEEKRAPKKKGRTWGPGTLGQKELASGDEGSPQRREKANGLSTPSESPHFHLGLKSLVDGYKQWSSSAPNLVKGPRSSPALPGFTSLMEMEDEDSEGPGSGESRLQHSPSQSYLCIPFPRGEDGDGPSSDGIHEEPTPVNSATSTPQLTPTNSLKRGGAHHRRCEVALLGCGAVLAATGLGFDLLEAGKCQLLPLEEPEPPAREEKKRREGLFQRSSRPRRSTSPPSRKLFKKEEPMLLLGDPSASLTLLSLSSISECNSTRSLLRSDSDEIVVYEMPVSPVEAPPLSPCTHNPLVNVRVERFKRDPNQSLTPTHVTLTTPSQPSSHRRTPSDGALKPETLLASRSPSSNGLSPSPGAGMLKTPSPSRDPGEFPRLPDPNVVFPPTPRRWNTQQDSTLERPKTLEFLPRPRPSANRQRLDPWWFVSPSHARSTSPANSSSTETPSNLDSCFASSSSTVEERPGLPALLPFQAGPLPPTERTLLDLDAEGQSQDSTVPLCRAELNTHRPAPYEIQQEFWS
T1 sequence (Q00537 whole entry): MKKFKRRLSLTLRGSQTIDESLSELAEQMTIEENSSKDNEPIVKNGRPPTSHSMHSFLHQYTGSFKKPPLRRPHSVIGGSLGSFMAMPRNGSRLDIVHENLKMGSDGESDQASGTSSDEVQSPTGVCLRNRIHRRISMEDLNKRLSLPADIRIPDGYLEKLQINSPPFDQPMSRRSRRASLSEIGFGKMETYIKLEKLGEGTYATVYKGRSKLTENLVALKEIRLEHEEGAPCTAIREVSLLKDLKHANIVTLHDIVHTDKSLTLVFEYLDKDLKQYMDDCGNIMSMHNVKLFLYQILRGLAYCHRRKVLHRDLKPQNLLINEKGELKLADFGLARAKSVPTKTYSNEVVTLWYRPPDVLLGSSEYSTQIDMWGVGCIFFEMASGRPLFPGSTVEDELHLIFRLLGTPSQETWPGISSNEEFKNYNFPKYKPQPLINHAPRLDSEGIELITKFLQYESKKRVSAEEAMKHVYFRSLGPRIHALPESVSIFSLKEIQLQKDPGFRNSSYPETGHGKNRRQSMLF

Row | Structure (SMILES) | KINOMEscan: PCTK2 (panel of 442 kinases [1]) | KINOMEscan: MLK1 (panel of 442 kinases [2]) | % Ctrl, TYRO3 (panel of 442 kinases [3])
1 | CCOc1cc(C(=O)N2CCC(N3CCN(C)CC3)CC2)ccc1Nc1ncc2c(n1)N(C1CCCC1)c1ccccc1C(=O)N2C [Compound 26] | 100 | 100 | 100 % Ctrl
2 | COc1cc(C(=O)N2CCC(N3CCN(C)CC3)CC2)ccc1Nc1ncc2c(n1)N(C1CCCC1)c1ccccc1C(=O)N2C [Compound 25, 11-cyclopentyl-2-((2-methoxy-4-(4-(4-methylpiperazin-1-yl)piperidine-1-carbonyl)phenyl)amino)-5-methyl-5H-benzo[e]pyrimido[5,4-b][1,4]diazepin-6(11H)-one] | 80 | 100 | 100 % Ctrl
3 | COc1cc(C(=O)N2CCC(N3CCN(C)CC3)CC2)ccc1Nc1ncc2c(n1)N1CCc3cccc(c31)C(=O)N2C [Compound 24] | 95 | 85 | 100 % Ctrl
4 | COc1cc(C(=O)N2CCC(N3CCN(C)CC3)CC2)ccc1Nc1ncc2c(n1)N(C)c1ccccc1C(=O)N2C [15 (LRRK2-IN-1)] | 83 | 93 | 100 % Ctrl
